From ChEMBL document CHEMBL1201862, “PubChem BioAssay data set” (2004)
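Results reflect a 48-hour exposure of cells in 96-well plates to compound at five concentrations. At the GI50, growth is halved.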 The source made the active and inactive calls. Cut-off read from the data, not from the text of the source: active = GI50 up to about 1.1 µM and inactive = higher.

Columns and labels:
Test in all cases: DTP human tumour cell line panel, 48 h
786-0 = tested on: 786-0
A498 = tested on: A498
ACHN = tested on: ACHN
BT-549 = tested on: BT-549
CAKI-1 = tested on: CAKI-1
CCRF-CEM = tested on: CCRF-CEM
COLO 205 = tested on: COLO 205
DU-145 = tested on: DU-145
HCC 2998 = tested on: HCC 2998
HCT-116 = tested on: HCT-116
HCT-15 = tested on: HCT-15
HL-60 = tested on: HL-60
HOP-62 = tested on: HOP-62
HOP-92 = tested on: HOP-92
Hs-578T = tested on: Hs-578T
K562 = tested on: K562
KM12 = tested on: KM12
LOX IMVI = tested on: LOX IMVI
M14 = tested on: M14
MCF7 = tested on: MCF7
MDA-MB-231 = tested on: MDA-MB-231
MDA-MB-435 = tested on: MDA-MB-435
MDA-N = tested on: MDA-N
MOLT-4 = tested on: MOLT-4
NCI-H23 = tested on: NCI-H23
NCI-H460 = tested on: NCI-H460
NCI-H522 = tested on: NCI-H522
NCI/ADR-RES = tested on: NCI/ADR-RES
OVCAR-3 = tested on: OVCAR-3
OVCAR-4 = tested on: OVCAR-4
OVCAR-5 = tested on: OVCAR-5
OVCAR-8 = tested on: OVCAR-8
PC-3 = tested on: PC-3
RXF 393 = tested on: RXF 393
SF-268 = tested on: SF-268
SF-295 = tested on: SF-295
SF-539 = tested on: SF-539
SK-MEL-2 = tested on: SK-MEL-2
SK-MEL-5 = tested on: SK-MEL-5
SK-OV-3 = tested on: SK-OV-3
SN12C = tested on: SN12C
SNB-19 = tested on: SNB-19
SNB-75 = tested on: SNB-75
SR = tested on: SR
SW-620 = tested on: SW-620
T47D = tested on: T47D
TK-10 = tested on: TK-10
U-251 = tested on: U-251
UACC-257 = tested on: UACC-257
UACC-62 = tested on: UACC-62
UO-31 = tested on: UO-31
A549 = tested on: A549
EKVX = tested on: EKVX
HT-29 = tested on: HT-29
IGROV-1 = tested on: IGROV-1
Malme-3M = tested on: Malme-3M
NCI-H226 = tested on: NCI-H226
RPMI-8226 = tested on: RPMI-8226
SK-MEL-28 = tested on: SK-MEL-28

Measured: GI50

CC1OC(O[C@H]2CC[C@]3(C)[C@H]4CC=C5[C@@H]6[C@@H](C)[C@H](C)CC[C@]6(C(=O)O)CC[C@@]5(C(=O)O)[C@]4(C)CC[C@H]3C2(C)C)C(O)C(O)C1O (stereo partly drawn)
> 75 µM: HCT-15
inactive: 786-0 > 75 µM | A498 > 75 µM | ACHN > 75 µM | BT-549 > 75 µM | CAKI-1 > 75 µM | CCRF-CEM 28.8 µM | COLO 205 > 75 µM | DU-145 > 75 µM | HCC 2998 > 75 µM | HCT-116 > 75 µM | HL-60 24.8 µM | HOP-62 > 75 µM | HOP-92 38.3 µM | Hs-578T > 75 µM | K562 > 75 µM | KM12 > 75 µM | LOX IMVI > 75 µM | M14 > 75 µM | MCF7 > 75 µM | MDA-MB-231 > 75 µM | MDA-MB-435 > 75 µM | MDA-N > 75 µM | MOLT-4 > 75 µM | NCI-H23 > 75 µM | NCI-H460 50.1 µM | NCI-H522 > 75 µM | NCI/ADR-RES > 75 µM | OVCAR-3 > 75 µM | OVCAR-4 > 75 µM | OVCAR-5 > 75 µM | OVCAR-8 > 75 µM | PC-3 > 75 µM | RXF 393 > 75 µM | SF-268 > 75 µM | SF-295 > 75 µM | SF-539 > 75 µM | SK-MEL-2 > 75 µM | SK-MEL-5 > 75 µM | SK-OV-3 > 75 µM | SN12C > 75 µM | SNB-19 > 75 µM | SNB-75 > 75 µM | SR > 75 µM | SW-620 > 75 µM | T47D > 75 µM | TK-10 > 75 µM | U-251 > 75 µM | UACC-257 > 75 µM | UACC-62 > 75 µM | UO-31 > 75 µM

Cc1ccc(S(=O)(=O)NNC(=O)c2cc(C)ccc2NC(=O)C23CC4CC(CC(C4)C2)C3)cc1
22.7 µM: HCT-15
inactive: 786-0 21.9 µM | A549 29.4 µM | ACHN 21.1 µM | BT-549 > 100 µM | CAKI-1 46 µM | CCRF-CEM > 100 µM | COLO 205 > 100 µM | DU-145 29.6 µM | EKVX 60 µM | HCC 2998 30.1 µM | HCT-116 31.2 µM | HL-60 66.8 µM | HOP-62 29.3 µM | HOP-92 21.6 µM | HT-29 > 100 µM | Hs-578T 32.9 µM | IGROV-1 12.6 µM | K562 > 100 µM | KM12 75.3 µM | LOX IMVI > 100 µM | M14 84.7 µM | MCF7 37.2 µM | MDA-MB-231 41.6 µM | MDA-MB-435 61.9 µM | MDA-N > 100 µM | MOLT-4 > 100 µM | Malme-3M 23.5 µM | NCI-H226 60.7 µM | NCI-H23 36.1 µM | NCI-H460 43.8 µM | NCI-H522 20.2 µM | NCI/ADR-RES 38.5 µM | OVCAR-3 34.4 µM | OVCAR-4 27.7 µM | OVCAR-5 > 100 µM | OVCAR-8 45.7 µM | PC-3 34.5 µM | RPMI-8226 > 100 µM | RXF 393 25.4 µM | SF-268 41.7 µM | SF-295 45.5 µM | SF-539 52.1 µM | SK-MEL-5 61.5 µM | SK-OV-3 22.6 µM | SN12C 44.4 µM | SNB-19 16.9 µM | SR 84.5 µM | SW-620 92.9 µM | T47D 22.2 µM | TK-10 41.8 µM | U-251 27.6 µM | UACC-257 25.4 µM | UACC-62 39.7 µM | UO-31 21.6 µM

Cc1cc(C)n(CN(Cn2nc(C)cc2C)c2ccccc2)n1
inactive: 786-0 21.4 µM | A498 > 100 µM | A549 26.8 µM | ACHN 18.4 µM | BT-549 21.8 µM | CAKI-1 20.4 µM | CCRF-CEM 23.3 µM | COLO 205 14.3 µM | DU-145 30.3 µM | EKVX 24.7 µM | HCT-116 19.8 µM | HL-60 2.99 µM | HOP-62 23.7 µM | HOP-92 33.5 µM | HT-29 17.6 µM | Hs-578T 45 µM | IGROV-1 25.5 µM | K562 15.6 µM | KM12 16 µM | LOX IMVI 1.5 µM | M14 16.3 µM | MCF7 23.1 µM | MDA-MB-231 37.6 µM | MDA-MB-435 13.7 µM | MDA-N 14.5 µM | MOLT-4 10.5 µM | Malme-3M 22.8 µM | NCI-H23 18.1 µM | NCI-H460 35.1 µM | NCI-H522 23.2 µM | NCI/ADR-RES 20.8 µM | OVCAR-3 30.5 µM | OVCAR-4 20.3 µM | OVCAR-5 30.1 µM | OVCAR-8 20.9 µM | PC-3 27.8 µM | RPMI-8226 18.4 µM | RXF 393 19.3 µM | SF-268 20.4 µM | SF-295 57.9 µM | SF-539 19.4 µM | SK-MEL-28 19.6 µM | SK-MEL-2 19 µM | SK-MEL-5 20.4 µM | SK-OV-3 40.9 µM | SN12C 35.1 µM | SNB-19 45.5 µM | SW-620 18.2 µM | T47D 23.7 µM | TK-10 46.1 µM | U-251 17.8 µM | UACC-257 22.3 µM | UACC-62 10.6 µM | UO-31 21.7 µM
19.6 µM: HCT-15
active: SR 0.217 µM

CC(C)CCCC(C)[C@H]1CCC2[C@@H]3CCC4Cc5nc6c(nc5C[C@]4(C)C3CC[C@@]21C)CC1CC[C@@H]2C(C[C@@H](O)[C@@]3(C)C2C[C@@H]2OC4(CCC(C)CO4)C(C)[C@@H]23)[C@@]1(C)C6 (stereo partly drawn)
> 100 µM: HCT-15
inactive: 786-0 > 100 µM | A549 > 100 µM | ACHN > 100 µM | BT-549 > 100 µM | CCRF-CEM > 100 µM | COLO 205 > 100 µM | DU-145 > 100 µM | EKVX > 100 µM | HCC 2998 > 100 µM | HCT-116 > 100 µM | HL-60 > 100 µM | HOP-62 > 100 µM | HOP-92 > 100 µM | HT-29 > 100 µM | Hs-578T > 100 µM | IGROV-1 > 100 µM | K562 > 100 µM | KM12 > 100 µM | M14 > 100 µM | MCF7 > 100 µM | MDA-MB-231 > 100 µM | MDA-MB-435 > 100 µM | MDA-N > 100 µM | MOLT-4 > 100 µM | NCI-H226 > 100 µM | NCI-H23 > 100 µM | NCI-H460 > 100 µM | NCI-H522 > 100 µM | NCI/ADR-RES > 100 µM | OVCAR-3 > 100 µM | OVCAR-4 > 100 µM | OVCAR-5 > 100 µM | OVCAR-8 > 100 µM | PC-3 > 100 µM | RPMI-8226 > 100 µM | RXF 393 > 100 µM | SF-268 > 100 µM | SF-295 > 100 µM | SF-539 > 100 µM | SK-MEL-28 > 100 µM | SK-MEL-5 > 100 µM | SK-OV-3 94.4 µM | SN12C > 100 µM | SNB-19 > 100 µM | SNB-75 > 100 µM | SR > 100 µM | SW-620 > 100 µM | T47D > 100 µM | TK-10 > 100 µM | U-251 > 100 µM | UACC-257 > 100 µM | UACC-62 > 100 µM

CC(=O)OCC1OC(OC2CC3C(C)(C)C(O)CC[C@]3(C)C3CCC45CC4(CCC5[C@@H](C)CC(O)C(O)C(C)(C)O)[C@]23C)C(O)C(O)C1O (stereo partly drawn)
inactive: 786-0 > 10 µM | A498 > 10 µM | A549 > 10 µM | ACHN > 10 µM | BT-549 > 10 µM | CAKI-1 > 10 µM | CCRF-CEM > 10 µM | COLO 205 > 10 µM | DU-145 > 10 µM | EKVX > 10 µM | HCC 2998 > 10 µM | HCT-116 > 10 µM | HL-60 > 10 µM | HOP-62 > 10 µM | HOP-92 > 10 µM | HT-29 > 10 µM | Hs-578T > 10 µM | IGROV-1 > 10 µM | K562 > 10 µM | KM12 > 10 µM | LOX IMVI > 10 µM | M14 > 10 µM | MCF7 > 10 µM | MDA-MB-231 > 10 µM | MDA-MB-435 > 10 µM | MDA-N > 10 µM | MOLT-4 > 10 µM | Malme-3M > 10 µM | NCI-H226 > 10 µM | NCI-H23 > 10 µM | NCI-H460 > 10 µM | NCI-H522 > 10 µM | NCI/ADR-RES > 10 µM | OVCAR-3 > 10 µM | OVCAR-4 > 10 µM | OVCAR-5 > 10 µM | OVCAR-8 > 10 µM | PC-3 > 10 µM | RPMI-8226 > 10 µM | RXF 393 > 10 µM | SF-268 > 10 µM | SF-295 > 10 µM | SF-539 > 10 µM | SK-MEL-28 > 10 µM | SK-MEL-2 > 10 µM | SK-MEL-5 > 10 µM | SK-OV-3 > 10 µM | SN12C > 10 µM | SNB-19 > 10 µM | SNB-75 > 10 µM | SW-620 > 10 µM | T47D > 10 µM | TK-10 > 10 µM | U-251 > 10 µM | UACC-257 > 10 µM | UACC-62 > 10 µM | UO-31 > 10 µM
> 10 µM: HCT-15
